Experiments:
[1] = target: T1, Neuropeptide Y receptor type 5 (Homo sapiens, UniProt Q15761); assay: Displacement of [125I]PYY from human recombinant NPY Y5 receptor expressed in mouse LMtk cells; assay type: cell-based
T1 sequence (Q15761 whole entry): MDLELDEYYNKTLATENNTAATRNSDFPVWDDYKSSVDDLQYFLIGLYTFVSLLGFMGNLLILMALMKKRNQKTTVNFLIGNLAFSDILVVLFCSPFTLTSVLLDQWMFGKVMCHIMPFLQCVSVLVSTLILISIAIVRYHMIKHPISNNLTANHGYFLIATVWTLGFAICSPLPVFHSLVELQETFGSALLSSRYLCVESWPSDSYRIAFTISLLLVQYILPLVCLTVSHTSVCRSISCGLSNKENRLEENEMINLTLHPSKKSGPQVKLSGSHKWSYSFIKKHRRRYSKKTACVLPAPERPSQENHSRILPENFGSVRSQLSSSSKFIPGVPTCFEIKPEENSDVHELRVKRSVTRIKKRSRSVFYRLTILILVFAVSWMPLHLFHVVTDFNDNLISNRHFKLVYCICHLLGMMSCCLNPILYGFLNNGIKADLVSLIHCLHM

[2] = Lipophilicity, Log D at pH 7.4; settings: buffer
[3] = tested on: Rattus norvegicus; assay: Plasma concentration in rat at 3 mg/kg, iv; assay type: ADME, organism-based; set-up: dose 3 mg/kg, route intravenous; settings: in vivo; note: time not given here
[4] = tested on: Brain; assay: Drug level in rat brain at 3 mg/kg, iv; assay type: ADME, organism-based; set-up: dose 3 mg/kg, route intravenous; settings: in vivo; for Drug uptake: time not given here
[5] = tested on: Cerebrospinal fluid; assay: Drug level in rat cerebrospinal fluid at 3 mg/kg, iv; assay type: ADME, organism-based; set-up: dose 3 mg/kg, route intravenous; settings: in vivo, read-out: Drug uptake; note: time not given here
[6] = Ratio of drug level in rat brain to plasma at 3 mg/kg, iv; assay type: ADME, organism-based; set-up: dose 3 mg/kg, route intravenous
[7] = Ratio of drug level in cerebrospinal fluid to brain of rat at 3 mg/kg, iv; assay type: ADME, organism-based, CSF/Brain; set-up: dose 3 mg/kg, route intravenous; settings: in vivo
[8] = tested on: LLC-PK1; assay: Efflux ratio of permeability from […] side in human MDR1 gene transfected pig LLC-PK1 cells; assay type: ADME, cell-based, Sus scrofa
[9] = tested on: LLC-PK1; assay: Efflux ratio of permeability from […] side in mouse mdr1a gene transfected pig LLC-PK1 cells; assay type: ADME, cell-based, Sus scrofa
[10] = target: T2, Neuropeptide Y receptor type 1 (Homo sapiens, UniProt P25929); assay: Inhibition of human NPY Y1 receptor
T2 sequence (P25929 whole entry): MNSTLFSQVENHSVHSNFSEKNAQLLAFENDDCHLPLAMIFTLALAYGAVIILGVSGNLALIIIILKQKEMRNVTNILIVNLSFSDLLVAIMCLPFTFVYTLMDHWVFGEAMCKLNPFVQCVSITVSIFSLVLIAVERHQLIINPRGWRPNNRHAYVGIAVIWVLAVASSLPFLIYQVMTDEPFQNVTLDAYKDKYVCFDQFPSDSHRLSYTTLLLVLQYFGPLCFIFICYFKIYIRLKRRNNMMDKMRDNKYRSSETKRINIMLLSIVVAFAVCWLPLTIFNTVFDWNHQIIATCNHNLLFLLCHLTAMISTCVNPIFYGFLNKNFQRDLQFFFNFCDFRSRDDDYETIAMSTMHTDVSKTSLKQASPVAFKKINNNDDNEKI

[11] = target: T3, Neuropeptide Y receptor type 2 (Homo sapiens, UniProt P49146); assay: Inhibition of human NPY Y2 receptor
T3 sequence (P49146 whole entry): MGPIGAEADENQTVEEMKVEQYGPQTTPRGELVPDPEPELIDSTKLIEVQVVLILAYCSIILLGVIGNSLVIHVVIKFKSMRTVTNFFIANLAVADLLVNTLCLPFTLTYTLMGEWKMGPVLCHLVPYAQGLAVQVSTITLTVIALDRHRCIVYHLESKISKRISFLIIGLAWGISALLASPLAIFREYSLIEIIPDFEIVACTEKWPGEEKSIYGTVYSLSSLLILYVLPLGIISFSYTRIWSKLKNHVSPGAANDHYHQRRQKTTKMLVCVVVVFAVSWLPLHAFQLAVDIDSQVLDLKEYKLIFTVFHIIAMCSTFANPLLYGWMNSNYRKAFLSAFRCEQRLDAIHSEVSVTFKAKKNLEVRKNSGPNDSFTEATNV

[12] = target: Neuropeptide Y receptor type 4 (Homo sapiens, UniProt P50391); assay: Inhibition of human NPY Y4 receptor
Chain of Neuropeptide Y receptor type 4 (P50391 whole entry): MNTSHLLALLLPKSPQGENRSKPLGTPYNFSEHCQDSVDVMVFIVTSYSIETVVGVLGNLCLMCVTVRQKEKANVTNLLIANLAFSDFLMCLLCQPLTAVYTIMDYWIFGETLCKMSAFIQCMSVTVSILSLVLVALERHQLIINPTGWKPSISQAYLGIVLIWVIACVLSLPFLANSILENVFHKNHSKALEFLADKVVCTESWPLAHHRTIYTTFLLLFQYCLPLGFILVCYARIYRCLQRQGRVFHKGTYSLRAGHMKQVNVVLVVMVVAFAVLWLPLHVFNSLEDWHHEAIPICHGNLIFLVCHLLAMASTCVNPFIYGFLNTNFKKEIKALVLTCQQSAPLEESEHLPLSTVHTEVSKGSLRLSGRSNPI

Compound `O=C1O[C@]2(CC[C@H](C(=O)Nc3ncc(-c4cccc(CF)c4)cn3)CC2)c2cccnc21` has an IC50 [1] of 2.3 nM.

For `O=C1O[C@]2(CC[C@H](C(=O)Nc3ncc(-c4cccc(OCF)c4)cn3)CC2)c2ccncc21`, the IC50 [1] was 1.8 nM, the logD [2] was 2.71 and the concentration [3] was 1500 nM. For the same compound, the concentration ([4]; read-out: Drug uptake) was 150 nM, the concentration [5] was 64 nM and the Kp [6] was 0.11. The Ratio [7] was 0.42, the Ratio [8] was 1.52 and the Ratio [9] was 9.51.

For `O=C1O[C@]2(CC[C@H](C(=O)Nc3ncc(-c4ccccc4F)cn3)CC2)c2ccncc21`, the IC50 [1] was 1.5 nM, the logD [2] was 2.79 and the concentration [3] was 3100 nM. The concentration ([4]; read-out: Cp) was 1550 nM, the concentration [5] was 288 nM and the Kp [6] was 0.5. The Ratio [7] was 0.19, the Ratio [8] was 1.11 and the Ratio [9] was 4.43. The IC50 [10] was greater than 10000 nM, the IC50 [11] was greater than 10000 nM and the IC50 [12] was greater than 10000 nM.

For `O=C1O[C@]2(CC[C@H](C(=O)Nc3ncc(-c4ccc(F)cc4)cn3)CC2)c2ccncc21`, the IC50 [1] was 2.2 nM.

For `O=C1O[C@]2(CC[C@H](C(=O)Nc3ncc(-c4cccc(F)c4)cn3)CC2)c2cnccc21`, the IC50 [1] was 1.8 nM.

Compound `O=C1O[C@]2(CC[C@H](C(=O)Nc3ncc(-c4ccccc4OCF)cn3)CC2)c2cnccc21` has an IC50 [1] of 2.6 nM and a logD [2] of 2.71.

In the case of `O=C1O[C@]2(CC[C@H](C(=O)Nc3ncc(-c4ccccc4OCF)cn3)CC2)c2ccncc21`, the IC50 [1] is reported as 2.2 nM.

For `O=C1O[C@]2(CC[C@H](C(=O)Nc3ncc(-c4cccc(OCF)c4)cn3)CC2)c2cnccc21`, the IC50 [1] was 1.9 nM, the logD [2] was 2.75 and the concentration [3] was 2040 nM. For the same compound, the concentration ([4]; read-out: Drug uptake) was 740 nM, the concentration [5] was 95 nM and the Kp [6] was 0.37. The Ratio [7] was 0.13, the Ratio [8] was 1.37 and the Ratio [9] was 8.23.

In the case of `O=C1O[C@]2(CC[C@H](C(=O)Nc3ncc(-c4ccccc4)cn3)CC2)c2ccncc21`, the IC50 [1] is reported as 2 nM.

`O=C1O[C@]2(CC[C@H](C(=O)Nc3ncc(-c4ccc(F)cc4)cn3)CC2)c2cnccc21` gave an IC50 [1] of 2.7 nM.

`O=C1O[C@]2(CC[C@H](C(=O)Nc3ncc(-c4cccc(F)c4)cn3)CC2)c2cccnc21` showed an IC50 [1] of 2.2 nM and a logD [2] of 2.48.

In the case of `O=C1O[C@]2(CC[C@H](C(=O)Nc3ncc(-c4ccccc4F)cn3)CC2)c2cnccc21`, the IC50 [1] is reported as 1.8 nM and the logD [2] is reported as 2.79.

`O=C1O[C@]2(CC[C@H](C(=O)Nc3ncc(-c4ccccc4)cn3)CC2)c2ccccc21` gave an IC50 [1] of 0.64 nM and a logD [2] of 3.73.

`O=C1O[C@]2(CC[C@H](C(=O)Nc3ncc(-c4ccc(F)cc4)cn3)CC2)c2cccnc21` showed an IC50 [1] of 7.5 nM.

`O=C1O[C@]2(CC[C@H](C(=O)Nc3ncc(-c4ccccc4)cn3)CC2)c2ncccc21` gave an IC50 [1] of 2.9 nM and a logD [2] of 2.71.

Work on `O=C1O[C@]2(CC[C@H](C(=O)Nc3ncc(-c4ccccc4CF)cn3)CC2)c2cnccc21` yielded an IC50 [1] of 2 nM and a logD [2] of 2.54.

Work on `O=C1O[C@]2(CC[C@H](C(=O)Nc3ncc(-c4ccccc4OCF)cn3)CC2)c2cccnc21` yielded an IC50 [1] of 4.5 nM.

Work on `O=C1O[C@]2(CC[C@H](C(=O)Nc3ncc(-c4ccccc4)cn3)CC2)c2cccnc21` yielded an IC50 [1] of 2.1 nM and a logD [2] of 2.32.

`O=C1O[C@]2(CC[C@H](C(=O)Nc3ncc(-c4ccccc4F)cn3)CC2)c2cccnc21` gave an IC50 [1] of 3 nM.

Compound `O=C1O[C@]2(CC[C@H](C(=O)Nc3ncc(-c4cccc(CF)c4)cn3)CC2)c2cnccc21` has an IC50 [1] of 1.8 nM, a logD [2] of 2.65 and a concentration [3] of 1220 nM. For the same compound, the concentration ([4]; read-out: Drug uptake) was 370 nM, the concentration [5] was 79 nM and the Kp [6] was 0.3. It also gave a Ratio [7] of 0.22, a Ratio [8] of 1.69 and a Ratio [9] of 7.9.

Work on `O=C1O[C@]2(CC[C@H](C(=O)Nc3ncc(-c4cccc(OCF)c4)cn3)CC2)c2cccnc21` yielded an IC50 [1] of 3.1 nM.

`O=C1O[C@]2(CC[C@H](C(=O)Nc3ncc(-c4ccccc4)cn3)CC2)c2cnccc21` gave an IC50 [1] of 1.8 nM and a logD [2] of 2.65.

For `O=C1O[C@]2(CC[C@H](C(=O)Nc3ncc(-c4cccc(F)c4)cn3)CC2)c2ccncc21`, the IC50 [1] was 1.5 nM, the logD [2] was 2.78 and the concentration [3] was 3450 nM. For the same compound, the concentration ([4]; read-out: Drug uptake) was 1420 nM, the concentration [5] was 308 nM and the Kp [6] was 0.41. For the same compound, the Ratio [7] was 0.22, the Ratio [8] was 1.41 and the Ratio [9] was 7.78.
